Consider one compound from PMC12796071, “Evaluation of [^18F]MNI-1054, a novel PET ligand for lysine-specific histone demethylase 1A (LSD1), in non-human primates” (EJNMMI Research, 2025).

“Also recorded” adds a separate entry of the source.

The nature of data set [1]: Arterial plasma radiometabolite analysis (parent fraction) during PET. It is filed as in vivo, rhesus monkeys (macaca mulatta). The following applies: for parent fraction in arterial plasma: across baseline and blocking studies. On the procedure:
(§1) All brain scans were collected over 3 h on a microPET Focus 220 PET scanner (Siemens), with injected doses in the range 167.61–185 MBq. A transmission scan with an external Germanium-68 source was performed prior to the emission scans to estimate attenuation correction coefficients. Discrete arterial blood samples (n = 18–21) were taken throughout the scans to measure the parent fraction, plasma free fraction as well as total plasma and whole-blood activity for tracer kinetic modeling. Detailed procedures are provided in the Supplement.
To generate arterial input functions, [^18F]MNI-1054 parent fraction measurements in plasma were first fitted to a sum of decaying exponentials using the Levenberg-Marquardt algorithm. The total arterial plasma activity concentration measurements were then multiplied by the resulting continuous parent fractions to yield the final input functions for kinetic modeling.
Arterial blood samples (1 mL or 3.5 mL) were drawn at 0.75, 1.5, 2.25, 3, 3.75, 4, 5, 6, 8, 10, 15, 20, 25, 30, 45, 60, 90, 120, 150, and 180 min post-injection to measure parent fraction, total plasma and whole blood activity. The larger samples were drawn for analysis of parent fraction. Aliquots of 200 µL of whole blood were counted in a gamma counter (Wallac 2480 Wizard^2® Automatic Gamma Counter, Perkin-Elmer, Waltham, Massachusetts) for 1 min (400-1400 keV window). All blood samples were centrifuged for 10 min at 3,000 g and the plasma separated. Aliquots of 200 µL of plasma were counted in the gamma counter for 1 min (400-1400 keV window).
The fraction of unchanged radiotracer in plasma was determined by HPLC at selected time points. […] Sample vials and pellets were counted in the gamma counter for 1 min to calculate the extraction percentage. Gamma chromatograms were analyzed by integration of all radioactive peaks. The percentage of parent compound was calculated by dividing the area under the peak representing parent compound by the sum of the area of all radioactive peaks.

The target in data set [2] is T1, LSD1 (Macaca mulatta, UniProt I2CUD2). The data set can be described thus: PET imaging of the testes (baseline and TAK-418 blocking). The following applies: baseline scan; M3.
Experimental: TAK-418 (3 mg/kg) was administered as an intravenous bolus over 5-min, starting 120 min prior to [^18F]MNI-1054 administration.
For data set [3], the target named is T1, LSD1. Kind of data set: Brain PET imaging and kinetic analysis of [18F]MNI-1054 (irreversible 2TCM, Patlak). Also noted: from tissue; host or cells: brain of living rhesus monkeys (M1, M2), in vivo PET. It is filed as in vivo. As to conditions: for Average Ki bias (SD) versus full 180-min scan: baseline studies; for Ki Baseline: cerebellum. On the procedure: as §1
M1 and M2 each completed a scan at baseline to assess brain penetration and kinetics and to serve as reference for the blocking and displacement studies. A self-block study with cold 3 mg/kg MNI-1054, starting 5 min prior to [^18F]MNI-1054 administration, was conducted in M1 to assess regional differences in non-specific binding.
Blocking studies with the LSD1 inhibitor TAK-418 ([…]) were performed to measure the dose-occupancy relationship for this compound. For blocking studies, TAK-418 was administered intravenously 2 h prior to [^18F]MNI-1054. Prior to conducting these blocking studies, a displacement study with TAK-418 (3 mg/kg) was performed to confirm irreversible tracer binding, in which TAK-418 was administered 1.5 h post [^18F]MNI-1054 administration. For all studies involving TAK-418, the test article was administered intravenously over 5 min. Due to the irreversible binding of these compounds to LSD1, the time taken for the enzyme to re-populate was investigated by imaging one animal (M2) with [^18F]MNI-1054 at 24 and 48 h post TAK-418 treatment (0.3 mg/kg). Each animal also underwent a high-resolution T1-weighted structural brain MRI scan with a 3-D MPRAGE sequence on a separate day for anatomical reference.
Emission data were reconstructed with filtered back projection into a series of 45 temporal frames (6 × 30, 3 × 60, 2 × 120, 34 × 300 s). For each frame, reconstructed images had dimensions of 256 × 256 × 95, voxel size of 0.949 × 0.949 × 0.796 mm and units of kBq/mL. All standard corrections were applied including normalization, random, scatter, dead-time, and attenuation. Dynamic brain PET images were analyzed using an in-house processing pipeline incorporating functionalities from FSL [18] and AFNI [19] as well as custom developed Matlab scripts (Mathworks Inc., Natick, MA, USA). Key steps of the workflow included rigidly aligning the PET images to the same animal’s brain MRI scan and spatially normalizing the MRI volume to the INIA19 [20] and NMT2.0 [21, 22] rhesus MR templates. Volumes of interest (VOIs) masks defined in rhesus MR template spaces were then inverse warped and applied to the PET images in their native orientation to compute time-activity curves (TACs) for the following regions: occipital lobe, temporal lobe, frontal lobe, parietal lobe, olfactory cortex, amygdala, cingulate, hippocampus, thalamus, hypothalamus, cerebellar grey matter, pons, striatum, nucleus accumbens and cerebral white matter. Lobar VOI masks were restricted to grey matter only. All VOI masks were derived from the INIA19 atlas, with the exception of the pons mask which was obtained from the NMT2.0 atlas (Fig. S.2.). The average activity concentration (kBq/mL) within each VOI was determined and TACs representing the regional brain activity concentration over time were generated. Brain TACs and images were presented in SUV units [g/mL] by normalizing activity concentration data [kBq/mL] by the animal’s weight [kg] and injected activity [MBq].
Regional TACs were modeled with an irreversible 2-tissue compartmental model (‘2TCM’) (k4 = 0) with the arterial input function to determine the tracer binding parameters Ki [mL/cm^3/min] (where Ki= K1. k3/(k2 + k3)) and λ.k3 (where λ = K1/k2), a parameter independent of blood flow and proportional to LSD1 binding site density via k3. […]

The mark [4] stands for this setting: irreversible 2TCM, across all scans and regions.

With `Cc1cc([18F])ncc1C(=O)Nc1ccc([C@@H]2C[C@H]2NCC2CC2)cc1` [[^18F]MNI-1054], the figures for the “parent fraction in arterial plasma” value in data set [1] (30 min post-injection) and in data set [1] (180 min post-injection) were ~ 42% and ~ 14%, respectively. In data set [1] (self-block study (3 mg/kg cold MNI-1054) versus other studies), the “parent fraction and parent-in-plasma activity concentration levels, higher in self-block study” value is listed as “about 20%”. In addition, on LSD1 [2], the “testes uptake (SUV)” value is ~ 2. In addition, the “displacement of tracer (change in TACs)” value at LSD1 [3] (3.0 mg/kg TAK-418 given 90 min post tracer injection, M1) was “no observable change in the TACs; also recorded: did not displace”. For the same compound, the “Average Ki bias (SD) versus full 180-min scan” value at LSD1 [3] (120-min scan duration) is listed as 8.3 +/- 6.1%; at LSD1 [3] (150-min scan duration), 3.2 +/- 2.8%. Moreover, at LSD1 [3] (Patlak t* = 30 min, all studies and regions), the “difference Ki,Patlak versus Ki,2TCMirrev, mean +/- SD” value is reported as −0.00494 +/- 0.00348 mL/cm^3/min. Also, the “Regional Ki in displacement study compared with baseline” value at LSD1 [3] (TAK-418 3 mg/kg 1.5 h post tracer, same animal) is “did not substantially vary”. Besides, the “Ki Baseline” value at LSD1 [3] (animal M1) is listed as 0.058 mL/cm^3/min; at LSD1 [3] (animal M2) it was 0.047 mL/cm^3/min. On LSD1 [3] (setting [4]), the “k2/k3, max” value was 194.4. Besides, at LSD1 [3] (setting [4]), the “k2/k3, mean (SD)” value is 24.7 (28.6). Moreover, on LSD1 [3] (setting [4]), the “k2/k3, min” value is given as 6.1.
